Results published in patent publication US10385014B2, “Acyloxyalkyl carbamate prodrugs, methods of synthesis and use” (ARBOR PHARMACEUTICALS, LLC, priority 2003, dated 2019).

Experiments:
[1] = Caco-2 homogenate S9 stability; format: in vitro ADME; conditions: Caco-2 S9 (0.5 mg protein per mL), 5 μM, 37° C.
Protocol: Caco-2 Homogenate S9 Stability: Caco-2 cells were grown for 21 days prior to harvesting. Culture medium was removed and cell monolayers were rinsed and scraped off into ice-cold 10 mM sodium phosphate/0.15 M potassium chloride, pH 7.4. Cells were lysed by sonication at 4° C. using a probe sonicator. Lysed cells were then transferred into 1.5 mL centrifuge vials and centrifuged at 9000 g for 20 min at 4° C. The resulting supernatant (Caco-2 cell homogenate S9 fraction) was aliquoted into 0.5 mL vials and stored at −80° C. until used.
For stability studies, prodrug (5 μM) was incubated in Caco-2 homogenate S9 fraction (0.5 mg protein per mL) for 60 min at 37° C. Concentrations of intact prodrug and released baclofen were determined at zero time and 60 minutes using LC/MS/MS.

[2] = Prodrug stability in rat liver S9; format: in vitro ADME; conditions: Rat Liver S9 (0.5 mg/mL), 2.0 μM, NADPH, 37° C.
Protocol: (§1) The stabilities of prodrugs were evaluated in one or more in vitro systems using a variety of tissue preparations following methods known in the art. The chemical stability of prodrugs in aqueous buffers at pH's of 2.0, 7.4 and 8.0 were also measured. […] Each preparation was incubated with test compound at 37° C. for one hour. Aliquots (50 μL) were removed at 0, 30, and 60 min and quenched with 0.1% trifluoroacetic acid in acetonitrile. Samples were then centrifuged and analyzed by LC/MS/MS (see Example 86 below for method details).

[3] = Prodrug stability in human liver S9; format: in vitro ADME; conditions: Human Liver S9 (0.5 mg/mL), 2.0 μM, NADPH, 37° C.
Protocol: as §1

[4] = Chemical stability of prodrugs in aqueous buffers; format: physicochemical
Protocol: as §1

[5] = Prodrug stability in human plasma in vitro; format: in vitro ADME; conditions: 2.0 μM, 37° C.
Protocol: as §1

pancreatin = experiment: Pancreatin stability; format: in vitro ADME, porcine; conditions: 1% (w/v) pancreatin, 5 μM, pH 7.5, 37° C.
Protocol: Pancreatin Stability: Stability studies were conducted by incubating prodrug (5 μM) with 1% (w/v) pancreatin (Sigma, P-1625, from porcine pancreas) in 0.025 M Tris buffer containing 0.5 M NaCl (pH 7.5) at 37° C. for 60 min. The reaction was stopped by addition of 2 volumes of methanol. After centrifugation at 14,000 rpm for […], the supernatant was removed and analyzed by LC/MS/MS.

% of Baclofen Released after 60 min [1] | SMILES | % of Prodrug Remaining after 60 min [1] | % of Prodrug Remaining after 60 min [2] | % of Prodrug Remaining after 60 min [3] | % of Baclofen Released after 60 min ([4]; aqueous buffer pH 2.0, 37° C.) | % of Baclofen Released after 60 min ([4]; aqueous buffer pH 7.4, 37° C.) | % of Baclofen Released after 60 min ([4]; aqueous buffer pH 8.0, 37° C.) | % of Baclofen Released after 60 min [5] | % of Baclofen Released after 60 min [3] | % of Prodrug Remaining after 60 min ([4]; aqueous buffer pH 2.0, 37° C.) | % of Prodrug Remaining after 60 min ([4]; aqueous buffer pH 7.4, 37° C.) | % of Prodrug Remaining after 60 min ([4]; aqueous buffer pH 8.0, 37° C.) | % of Prodrug Remaining after 60 min (pancreatin) | % of Baclofen Released after 60 min (pancreatin) | % of Baclofen Released after 60 min [2]
 | CC(=O)OCOC(=O)NC[C@H](CC(=O)[O-])c1ccc(Cl)cc1.[Na+] [(10), Sodium 4-[(Acetoxymethoxy)carbonylamino]-(3R)-(4-chlorophenyl)-butanoate] | 2% | 0% | 1% | 1% | 3% | 9% |  |  |  |  |  |  |  | 
100% | O=C([O-])C[C@@H](CNC(=O)OCOC(=O)c1ccccc1)c1ccc(Cl)cc1.[Na+] [(12), Sodium 4-[(Benzoyloxymethoxy)carbonylamino]-(3R)-(4-chlorophenyl)-butanoate] | 2% | 3% | 1% | 0% | 0% | 0% | 5% | 100% | 100% | 100% |  |  |  | 
 | O=C([O-])C[C@@H](CNC(=O)OCOC(=O)C1CCCCC1)c1ccc(Cl)cc1.[Na+] [(14), Sodium 4-[(Cyclohexanecarboxymethoxy)carbonylamino]-(3R)-(4-chlorophenyl)-butanoate] | 2% | 2% | 2% | 1% | 1% | 2% |  |  |  |  | 102% | 2% |  | 
 | CC(=O)OC(OC(=O)NC[C@H](CC(=O)[O-])c1ccc(Cl)cc1)C(C)C.[Na+] (stereo partly drawn) [(23), Sodium 4-[(1-Acetoxyisobutoxy)carbonylamino]-(3R)-(4-chlorophenyl)-butanoate] |  | 3% | 4% | 0% | 1% | 2% | 3% |  | 107% |  |  |  |  | 
 | CCCC(=O)OC(OC(=O)NC[C@H](CC(=O)[O-])c1ccc(Cl)cc1)C(C)C.[Na+] (stereo partly drawn) [(27), Sodium 4-[(1-Butanoyloxyisobutoxy)carbonylamino]-(3R)-(4-chlorophenyl)-butanoate] |  | 0% | 8% | 0% | 0% | 1% | 12% |  |  |  |  |  | 9% | 
 | CC(OC(=O)NC[C@H](CC(=O)[O-])c1ccc(Cl)cc1)OC(=O)C(C)C.[Na+] (stereo partly drawn) [(33), Sodium 4-[(1-Isobutanoyloxyethoxy)carbonylamino]-(3R)-(4-chlorophenyl)-butanoate] | 3% | 4% | 3% | 0% | 0% | 0% | 4% | 101% |  |  |  |  |  | 101%
 | CC(OC(=O)NC[C@H](CC(=O)[O-])c1ccc(Cl)cc1)OC(=O)c1ccccc1.[Na+] (stereo partly drawn) [(40), Sodium 4-[(1-Benzoyloxyethoxy)carbonylamino]-(3R)-(4-chlorophenyl)-butanoate] |  | 8% | 1% | 0% | 0% | 2% | 2% |  |  |  |  |  |  | 
 | CC(C)C(OC(=O)NC[C@H](CC(=O)[O-])c1ccc(Cl)cc1)OC(=O)C(C)(C)C.[Na+] (stereo partly drawn) [(43), Sodium 4-[(1-Pivaloyloxyisobutoxy)carbonylamino]-(3R)-(4-chlorophenyl)-butanoate] |  | 3% |  | 0% | 0% | 0% | 2% |  |  |  |  |  | 4% | 
100% | CCOC(C)(OCC)C(=O)OCOC(=O)NC[C@H](CC(=O)[O-])c1ccc(Cl)cc1.[Na+] [(51), Sodium 4-[(2,2-Diethoxypropanoyloxymethoxy)carbonylamino]-(3R)-(4-chlorophenyl)-butanoate] | 3% | 2% | 6% | 0% | 2% | 9% |  | 91% |  |  |  |  | 50% | 
 | O=C([O-])C[C@@H](CNC(=O)OCOC(=O)c1cccs1)c1ccc(Cl)cc1.[Na+] [(57), Sodium 4-[(2-Thienylcarbonyloxymethoxy)carbonylamino]-(3R)-(4-chlorophenyl)-butanoate] | 2% | 2% | 1% | 0% | 0% | 0% |  |  |  | 100% | 100% |  |  | 
 | CC(C)C(=O)OC(OC(=O)NC[C@H](CC(=O)[O-])c1ccc(Cl)cc1)C1CCCCC1.[Na+] (stereo partly drawn) [(84), Sodium 4-[(1-Isobutanoyloxy-1-cyclohexylmethoxy)carbonylamino]-(3R)-(4-chlorophenyl)-butanoate] |  | 4% | 2% | 0% | 0% | 1% | 4% |  |  |  |  |  |  | 91%
 | CCC[C@H](OC(=O)NC[C@H](CC(=O)[O-])c1ccc(Cl)cc1)OC(=O)C(C)C.[Na+] [(91), Sodium 4-{[(1S)-Isobutanoyloxybutoxy]carbonylamino}-(3R)-(4-chlorophenyl)-butanoate] | 6% |  | 1% | 0% | 0% | 1% | 2% |  |  |  |  |  | 78% | 
 | CC(C)C(=O)O[C@@H](OC(=O)NC[C@H](CC(=O)[O-])c1ccc(Cl)cc1)C(C)C.[Na+] [(92), Sodium 4-{[(1S)-Isobutanoyloxyisobutoxy]carbonylamino}-(3R)-(4-chlorophenyl)-butanoate] |  | 6% | 4% | 0% | 0% | 1% | 1% | 80% |  |  |  |  | 7% | 
 | CC(C)C(=O)O[C@@H](OC(=O)NC[C@H](CC(=O)O)c1ccc(Cl)cc1)C(C)C [(104)] |  | 3% | 3% | 0% | 0% | 0% | 2% | 97% |  | 100% | 100% | 90% | 6% | 
